How the values were obtained:
Type in all cases: cell-based
SHP2 protein [1] = biological target: T1, SHP2 protein (Homo sapiens, UniProt Q06124); experiment: Degradation activity on SHP2 protein in MV-411 cells (Western blot, DC50); design: endogenous in cells; settings: MV411 cells, 24 hours, read-out: Degradation activity for differenct cell lines MV411 (DC50)
T1 sequence (Q06124 1-593): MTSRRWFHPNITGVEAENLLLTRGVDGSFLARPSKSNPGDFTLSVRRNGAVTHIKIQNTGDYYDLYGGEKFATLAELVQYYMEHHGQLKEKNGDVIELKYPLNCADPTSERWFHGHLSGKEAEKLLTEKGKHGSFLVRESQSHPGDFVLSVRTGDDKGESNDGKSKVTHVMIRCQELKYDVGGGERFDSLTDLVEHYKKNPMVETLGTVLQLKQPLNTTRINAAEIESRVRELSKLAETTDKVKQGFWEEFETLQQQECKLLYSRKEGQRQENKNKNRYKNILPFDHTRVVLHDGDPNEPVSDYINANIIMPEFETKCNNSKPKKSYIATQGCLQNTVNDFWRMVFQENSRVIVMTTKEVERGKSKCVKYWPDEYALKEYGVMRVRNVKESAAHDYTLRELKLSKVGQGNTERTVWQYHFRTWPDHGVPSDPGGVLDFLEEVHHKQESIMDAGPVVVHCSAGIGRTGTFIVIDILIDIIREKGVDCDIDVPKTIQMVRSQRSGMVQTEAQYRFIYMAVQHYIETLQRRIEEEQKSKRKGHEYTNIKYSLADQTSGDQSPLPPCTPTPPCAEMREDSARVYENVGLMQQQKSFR
Summary of the method: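 MV-411 cells (1×10^6 cells/well, IMDM + 10% FBS) were treated 24 h with compound at 0.1-100 nM final, 0.1% DMSO, duplicates. SHP2 measured by Western blot against GAPDH, band density normalised to DMSO control; DC50 from dose-response fit.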

SHP2 protein [2] = biological target: T1, SHP2 protein; experiment: Degradation activity on SHP2 protein in NCI-H358 cells (Western blot, DC50); design: endogenous in cells; settings: read-out: Degradation activity for differenct cell lines NCI-H358 (DC50)
Procedure: (1) MV-411 cells were cultured in the cell culture medium, and then well-growing cells were selected and inoculated in a 12-well plate, with 1 mL/well and 1×10^6 cells/well. The plate was incubated overnight in a 5% CO2 cell incubator at 37° C.
(2) 10 mM storage solution of each drug was prepared using dimethylsulfoxide (DMSO). The stock solution was diluted gradually with DMSO before use, and then 1 μL of the compound solution was added to the cell culture well (to ensure that the DMSO concentration in the culture system was […]), so that the final drug concentration is 100 nM, 10 nM, 3 nM, 1 nM, 0.3 nM, and 0.1 nM. Two wells were set for each concentration. The plate was gently shaken and mixed. Additionally, negative control wells (containing an equal amount of DMSO) and positive control wells were included.
(3) After 24 hours of cultivation, the cells were lysed using RIPA cell lysate, and the proteins were extracted. The protein concentration was measured using a BCA assay kit. 5× concentrated protein buffer was loaded, heated at 100° C. for 5 min, and then the sample was stored at −20° C.
(4) For each well, 30 μg of protein was loaded to polyacrylamide gel for electrophoresis.
(5) The protein was transferred from polyacrylamide gel to PVDF membrane, and sealed at room temperature with 5% skimmed milk for 1 h, which was then incubated with the primary antibodies (Anti-SHP2 rabbit mAb and Anti-GAPDH rabbit mAb) at 4° C. overnight. The membrane was washed three times with TBST solution, 10 minutes for each time. After that, the membrane was incubated with the secondary antibodies (horseradish peroxidase labeled goat anti-rabbit IgG) at room temperature for 2 h, and then washed three times with TBST solution, 10 minutes for each time, followed by exposure.
(6) The images were analyzed with Image J grayscale, and the degradation ratio of protein bands in the test group was calculated, based on the negative control group (DMSO) (100%).
(7) Using the Dose-response-inhibition equation in the data processing software GraphPad Prism 8, the DC50 value was obtained (which represents the drug concentration corresponding to 50% degradation of the target protein).
Using similar methods and different cell lines, the degradation activity of the compound according to the present invention on SHP2 protein of different cell lines was tested under suitable culture conditions.

SHP2 protein [3] = biological target: T1, SHP2 protein; experiment: Degradation activity on SHP2 protein in MIA Paca-2 cells (Western blot, DC50); design: endogenous in cells; host or cells: MIA Paca-2 cells; settings: read-out: Degradation activity for differenct cell lines MIA Paca-2 (DC50)
Summary of the method: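 Cells were treated 24 h at 37 °C with compound (0.1–100 nM final, 0.1% DMSO). SHP2 was measured by Western blot with GAPDH as loading control, densitometry normalized to DMSO (100%). DC50, the concentration giving 50% degradation, came from a dose-response fit.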

| SMILES | DC50 (SHP2 protein [1]) [nM] | DC50 (SHP2 protein [2]) [nM] | DC50 (SHP2 protein [3]) [nM] |
| --- | --- | --- | --- |
| Cc1ncsc1-c1ccc([C@H](C)NC(=O)[C@@H]2C[C@@H](O)CN2C(=O)[C@@H](NC(=O)CCCCCN2CCC3(C2)CN(CCC(=O)Nc2cccc(Sc4cnc(N5CCC(C)(N)CC5)cn4)c2)C3)C(C)(C)C)cc1 [Compound 46] | < 100 | > 1000 |  |
| Cc1ncsc1-c1ccc([C@H](C)NC(=O)[C@@H]2C[C@@H](O)CN2C(=O)[C@@H](NC(=O)c2cnc(N3CCC4(CN(CCC(=O)Nc5cccc(Sc6cnc(N7CCC(C)(N)CC7)cn6)c5)C4)C3)nc2)C(C)(C)C)cc1 [Compound 64] | < 100 | 100 to 1000 | 100 to 1000 |
| Cc1ncsc1-c1ccc([C@H](C)NC(=O)[C@@H]2C[C@@H](O)CN2C(=O)[C@@H](NC(=O)c2cnc(N3CC(OCCCCCCCCC(=O)Nc4ccc(Sc5cnc(N6CCC(C)(N)CC6)cn5)cc4)C3)nc2)C(C)(C)C)cc1 [Compound 75] | < 100 | < 100 | < 100 |
| Cc1ncsc1-c1ccc([C@H](C)NC(=O)[C@@H]2C[C@@H](O)CN2C(=O)[C@@H](NC(=O)c2cnc(N3CCC(OCCCCCCCC(=O)Nc4cccc(Sc5cnc(N6CCC(C)(N)CC6)cn5)c4)CC3)nc2)C(C)(C)C)cc1 [Compound 78] | < 100 | < 100 | < 100 |
| Cc1ncsc1-c1ccc([C@H](C)NC(=O)[C@@H]2C[C@@H](O)CN2C(=O)[C@@H](NC(=O)c2cnc(N3CC(OCCCCCCC(=O)Nc4cccc(Sc5cnc(N6CCC(C)(N)CC6)cn5)c4)C3)nc2)C(C)(C)C)cc1 [Compound 86] | < 100 | < 100 | < 100 |
| CC1(N)CCN(c2cnc(Sc3cccc(NC(=O)c4ccc(N5CCC(N6CC=C(c7cnc(C(=O)NCc8ccc9c(c8)CN(C8CCC(=O)NC8=O)C9=O)cc7Cl)CC6)CC5)c(F)c4)c3)cn2)CC1 (stereo not shown) [Compound 418] |  | < 100 | < 100 |
| Cc1cc(C(=O)Nc2cccc(Sc3cnc(N4CCC(C)(N)CC4)cn3)c2)ccc1N1CCC(N2CC=C(c3cnc(C(=O)NCc4ccc5c(c4)CN(C4CCC(=O)NC4=O)C5=O)c(F)c3)CC2)CC1 (stereo not shown) [Compound 439] |  | < 100 | < 100 |
| CC1(N)CCN(c2cnc(Sc3cccc(NC(=O)c4ccc(N5CCC(N6CC=C(c7ccc(C(=O)NCc8ccc9c(c8)CN(C8CCC(=O)NC8=O)C9=O)nc7Cl)CC6)CC5)c(F)c4)c3)cn2)CC1 (stereo not shown) [Compound 442] |  | 100 to 1000 | 100 to 1000 |
| Cc1cc(N2CCC(N3CC=C(c4cnc(C(=O)NCc5ccc6c(c5)CN(C5CCC(=O)NC5=O)C6=O)c(Cl)c4)CC3)CC2)ccc1C(=O)Nc1cccc(Sc2cnc(N3CCC(C)(N)CC3)cn2)c1 (stereo not shown) [Compound 443] |  | < 100 | 100 to 1000 |
| CC1(N)CCN(c2cnc(Sc3cccc(NC(=O)c4ccc(N5CCC(N6CC=C(c7ccc(C(=O)NCc8ccc9c(c8)CN(C8CCC(=O)NC8=O)C9=O)cc7)CC6)CC5)c(F)c4)c3)cn2)CC1 (stereo not shown) [Compound 445] |  | < 100 | 100 to 1000 |
| CC1(N)CCN(c2cnc(Sc3cccc(NC(=O)c4ccc(N5CCC(N6CC=C(c7ccc(C(=O)NCc8ccc9c(c8)CN(C8CCC(=O)NC8=O)C9=O)cc7)CC6)CC5)cc4)c3)cn2)CC1 (stereo not shown) [Compound 446] |  | < 100 | < 100 |
| Cc1cc(N2CCC(N3CC=C(c4cnc(C(=O)NCc5ccc6c(c5)CN(C5CCC(=O)NC5=O)C6=O)cc4C)CC3)CC2)ccc1C(=O)Nc1cccc(Sc2cnc(N3CCC(C)(N)CC3)cn2)c1 (stereo not shown) [Compound 457] |  | < 100 | < 100 |
| Cc1cc(C(=O)NCc2ccc3c(c2)CN(C2CCC(=O)NC2=O)C3=O)ncc1C1=CCN(C2CCN(c3ccc(C(=O)Nc4cccc(Sc5cnc(N6CCC7(CC6)CO[C@@H](C)[C@H]7N)cn5)c4)cc3F)CC2)CC1 (stereo partly shown) [Compound 465] |  | < 100 | < 100 |
| CC1(N)CCN(c2cnc(Sc3cccc(NC(=O)c4ccc(N5CCC(N6CC=C(c7ccc(C(=O)NCc8ccc9c(c8)CN(C8CCC(=O)NC8=O)C9=O)nc7F)CC6)CC5)c(F)c4)c3)cn2)CC1 (stereo not shown) [Compound 467] |  | 100 to 1000 | < 100 |

The next lines start with the values.

| DC50 (SHP2 protein [1]) [nM] | DC50 (SHP2 protein [2]) [nM] | DC50 (SHP2 protein [3]) [nM] | SMILES |
| --- | --- | --- | --- |
| < 100 | < 100 | 100 to 1000 | CC1(N)CCN(c2cnc(Sc3cccc(NC(=O)CCCCCCCOC4CCN(c5ncc(C(=O)NCc6ccc7c(c6)CN(C6CCC(=O)NC6=O)C7=O)cn5)CC4)c3)cn2)CC1 (stereo not shown) [Compound 79] |
| < 100 | < 100 | < 100 | CC1(N)CCN(c2cnc(Sc3cccc(NC(=O)CCCCCCCN4CC5CN(c6ccc(C(=O)NCc7ccc8c(c7)CN(C7CCC(=O)NC7=O)C8=O)nn6)CC5C4)c3)cn2)CC1 (stereo not shown) [Compound 100] |
| < 100 | 100 to 1000 | < 100 | CC1(N)CCN(c2cnc(Sc3cccc(NC(=O)CCCCCOC4CC5(CCN(c6ccc(C(=O)NCc7ccc8c(c7)CN(C7CCC(=O)NC7=O)C8=O)cc6F)CC5)C4)c3)cn2)CC1 (stereo not shown) [Compound 176] |
| < 100 | < 100 | < 100 | CC1(N)CCN(c2cnc(Sc3cccc(NC(=O)CCCCCCN4CC5(CCN(c6ccc(C(=O)NCc7ccc8c(c7)CN(C7CCC(=O)NC7=O)C8=O)nc6)C5)C4)c3)cn2)CC1 (stereo not shown) [Compound 186] |
| < 100 | < 100 | < 100 | CC1(N)CCN(c2cnc(Sc3cccc(NC(=O)CCCCCCCCN4CC=C(c5ccc(C(=O)NCc6ccc7c(c6)CN(C6CCC(=O)NC6=O)C7=O)nn5)CC4)c3)cn2)CC1 (stereo not shown) [Compound 188] |
| < 100 | < 100 | < 100 | CC1(N)CCN(c2cnc(Sc3cccc(NC(=O)CCCCCCN4CC5(CCN(c6ccc(C(=O)NCc7ccc8c(c7)CN(C7CCC(=O)NC7=O)C8=O)nc6Cl)C5)C4)c3)cn2)CC1 (stereo not shown) [Compound 200] |
| < 100 | < 100 | < 100 | CC1(N)CCN(c2cnc(Sc3cccc(NC(=O)CCCCCCN4CC5(CC=C(c6ccc(C(=O)NCc7ccc8c(c7)CN(C7CCC(=O)NC7=O)C8=O)nn6)CC5)C4)c3)cn2)CC1 (stereo not shown) [Compound 207] |
|  | < 100 | < 100 | CC1(N)CCN(c2cnc(Sc3cccc(NC(=O)c4ccc(N5CCC(N6CC=C(c7ccc(C(=O)NCc8ccc9c(c8)CN(C8CCC(=O)NC8=O)C9=O)nc7)C6)CC5)c(F)c4)c3)cn2)CC1 (stereo not shown) [Compound 410] |
|  | < 100 | < 100 | CC1(N)CCN(c2cnc(Sc3cccc(NC(=O)c4ccc(N5CCC(N6CC=C(c7cnc(C(=O)NCc8ccc9c(c8)CN(C8CCC(=O)NC8=O)C9=O)cc7Cl)CC6)CC5)nc4)c3)cn2)CC1 (stereo not shown) [Compound 419] |
|  | < 100 | < 100 | CC1(N)CCN(c2cnc(Sc3cccc(NC(=O)c4ccc(N5CCC(N6CCN(c7ccc(C(=O)NCc8ccc9c(c8)CN(C8CCC(=O)NC8=O)C9=O)nc7)CC6)CC5)cn4)c3)cn2)CC1 (stereo not shown) [Compound 448] |
|  | < 100 | < 100 | CC1(N)CCN(c2cnc(Sc3cccc(NC(=O)c4ncc(N5CCC(N6CCN(c7ccc(C(=O)NCc8ccc9c(c8)CN(C8CCC(=O)NC8=O)C9=O)nc7)CC6)CC5)cn4)c3)cn2)CC1 (stereo not shown) [Compound 451] |

Reference: patent US20240383908A1, “SYNTHESIS AND APPLICATION OF PHOSPHATASE DEGRADER” (HINOVA PHARMACEUTICALS INC., priority 2021, published 2024)
